The values that follow come from patent US10793568B2, “Hormone receptor modulators for treating metabolic conditions and disorders” (ARDELYX, INC., priority 2016, dated 2020).

Where two headings read alike, the source gives them in different places.

The target in assay [1] is ligand binding domain of human FXR (Homo sapiens (Human), UniProt Q96RI1). Kind of assay: FXR ligand binding assay (LanthaScreen TR-FRET, SRC2-2 peptide recruitment). To be noted: for Emax: read-out: % Efficacy. (In general: TR-FRET usually uses a lanthanide donor and a delayed reading to cut background.)
Assay [2] has as its target human Farnesoid X receptor ligand-binding domain/Gal4 DNA binding domain chimera (Homo sapiens (Human), UniProt Q96RI1). Kind of assay: Cell-based assay of FXR activation (FXR-UAS-bla HEK 293T beta-lactamase reporter). The settings on record: cellular FXR beta-lactamase reporter assay; for Emax: HEK-293T, read-out: % Efficacy. In outline: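 Readout is cleavage of the CCF4 FRET substrate (409 nm excitation, blue 447 nm signal) by beta-lactamase, expressed under UAS control after a Gal4–human FXR LBD chimera is activated in HEK 293T cells. Compounds were added as 3-fold dilutions for 16 h at 37 °C in 2% charcoal-stripped FBS medium. Curves were fit to a 3-parameter logistic equation to give pEC50, with % activation relative to GW4064.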

The mark [3] stands for this setting: -log EC50, concentration required to produce 50% activation.
[4] abbreviates: extent of activation relative to GW4064.
Setting [5] is: FXR-UAS-bla HEK 293T cells, 16 h, pEC50 = -log EC50.

Chain of ligand binding domain of human FXR (Q96RI1 262-486): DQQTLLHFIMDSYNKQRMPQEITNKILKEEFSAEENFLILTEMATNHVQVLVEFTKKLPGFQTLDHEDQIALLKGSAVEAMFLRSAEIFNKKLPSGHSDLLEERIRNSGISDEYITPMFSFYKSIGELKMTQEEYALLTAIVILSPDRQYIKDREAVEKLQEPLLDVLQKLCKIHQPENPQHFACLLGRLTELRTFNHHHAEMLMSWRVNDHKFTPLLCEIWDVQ
Chain of human Farnesoid X receptor ligand-binding domain/Gal4 DNA binding domain chimera (Q96RI1 262-486, change not shown): as the sequence (Q96RI1 262-486) above
Chain of human Farnesoid X receptor ligand-binding domain/Gal4 DNA binding domain chimera (P04386 1-147 partner): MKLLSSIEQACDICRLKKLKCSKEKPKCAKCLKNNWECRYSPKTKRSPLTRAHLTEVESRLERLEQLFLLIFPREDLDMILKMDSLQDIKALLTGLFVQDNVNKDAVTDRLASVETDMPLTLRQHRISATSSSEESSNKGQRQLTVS

As usually defined, the pEC50 is the negative decadic logarithm of the EC50, by convention in mol/L. Low values mean a large EC50, high ones a small EC50. Compound `O=C(NS(=O)(=O)C1CC1)c1ccc(N2C[C@@H]3C[C@H]2C[C@H]3OC(=O)c2c(-c3c(Cl)cccc3Cl)noc2C2(F)CC2)c(F)c1` [Compound I-199, (1S,4S,5R)-2-(4-((cyclopropylsulfonyl)carbamoyl)-2-fluorophenyl)-2-azabicyclo[2.2.1]heptan-5-yl 3-(2,6-dichlorophenyl)-5-(1-fluorocyclopropyl)isoxazole-4-carboxylate] showed a pEC50 in assay [1] (setting [3]) of 7.4. The Emax was 146% in assay [1] (setting [4]) and 110% in assay [2] (setting [4]). Moreover, in assay [2] (setting [5]), the EC50 is 10 nM.
For `CCCS(=O)(=O)NC(=O)c1ccc(N2C[C@@H]3C[C@H]2C[C@H]3OCc2c(-c3ccccc3C(F)(F)F)noc2C2CC2)c(F)c1` [Compound I-200, 4-((1S,4S,5R)-5-((5-cyclopropyl-3-(2-(trifluoromethyl)phenyl)isoxazol-4-yl)methoxy)-2-azabicyclo[2.2.1]heptan-2-yl)-3-fluoro-N-(propylsulfonyl)benzamide] the same measures were 8.6, 215%, 110% and 0.251 nM.
On to `O=C(NS(=O)(=O)C1CC1)c1ccc(N2C[C@@H]3C[C@H]2C[C@H]3OCc2c(-c3ccccc3C(F)(F)F)noc2C2CC2)c(F)c1` [Compound I-202, 4-((1S,4S,5R)-5-((5-cyclopropyl-3-(2-(trifluoromethyl)phenyl)isoxazol-4-yl)methoxy)-2-azabicyclo[2.2.1]heptan-2-yl)-N-(cyclopropylsulfonyl)-3-fluorobenzamide], for which the pEC50 was 8.5 in assay [1] (setting [3]) and 9.4 in assay [2] (setting [5]). The “% Efficacy” value was found to be 215% in assay [1] (setting [4]) and 114% in assay [2] (setting [4]).
As to `Cc1cccc(Cl)c1-c1noc(C2CC2)c1CO[C@@H]1C[C@@H]2C[C@H]1CN2c1ccc(C(=O)NS(=O)(=O)C2CCOCC2)cc1` [Compound I-203, 4-((1S,4S,5R)-5-((3-(2-chloro-6-methylphenyl)-5-cyclopropylisoxazol-4-yl)methoxy)-2-azabicyclo[2.2.1]heptan-2-yl)-N-((tetrahydro-2H-pyran-4-yl)sulfonyl)benzamide], the pEC50 in assay [1] (setting [3]) stood at 9. The values for the Emax in assay [1] (setting [4]) and in assay [2] (setting [4]) were 157% and 102%, respectively. The same compound had an EC50 in assay [2] (setting [5]) of 0.158 nM.
For `CCCS(=O)(=O)NC(=O)c1ccc(N2C[C@@H]3C[C@H]2C[C@H]3OCc2c(-c3c(Cl)cccc3Cl)noc2C2CC2)nc1` [Compound I-204, 6-((1S,4S,5R)-5-((5-cyclopropyl-3-(2,6-dichlorophenyl)isoxazol-4-yl)methoxy)-2-azabicyclo[2.2.1]heptan-2-yl)-N-(propylsulfonyl)nicotinamide] the same measures were 8.4, 136%, 104% and 2.51 nM.
As to `O=C(NS(=O)(=O)C1CC1)c1ccc(N2C[C@@H]3C[C@H]2C[C@H]3OCc2c(-c3c(Cl)cccc3Cl)noc2C2CC2)nc1` [Compound I-205, 6-((1S,4S,5R)-5-((5-cyclopropyl-3-(2,6-dichlorophenyl)isoxazol-4-yl)methoxy)-2-azabicyclo[2.2.1]heptan-2-yl)-N-(cyclopropylsulfonyl)nicotinamide], the pEC50 in assay [1] (setting [3]) stood at 8.4. The figures for the Emax in assay [1] (setting [4]) and in assay [2] (setting [4]) were 142% and 104%, respectively. For the same compound, the EC50 in assay [2] (setting [5]) was 10 nM.
For `CCCS(=O)(=O)NC(=O)c1cnc(N2C[C@@H]3C[C@H]2C[C@H]3OCc2c(-c3c(Cl)cccc3Cl)noc2C2CC2)c(F)c1` [Compound I-206, 6-((1S,4S,5R)-5-((5-cyclopropyl-3-(2,6-dichlorophenyl)isoxazol-4-yl)methoxy)-2-azabicyclo[2.2.1]heptan-2-yl)-5-fluoro-N-(propylsulfonyl)nicotinamide] the same measures were 8.4, 159%, 104% and 1.58 nM.
For `O=C(NS(=O)(=O)C1CC1)c1cnc(N2C[C@@H]3C[C@H]2C[C@H]3OCc2c(-c3c(Cl)cccc3Cl)noc2C2CC2)c(F)c1` [Compound I-207, 6-((1S,4S,5R)-5-((5-cyclopropyl-3-(2,6-dichlorophenyl)isoxazol-4-yl)methoxy)-2-azabicyclo[2.2.1]heptan-2-yl)-N-(cyclopropylsulfonyl)-5-fluoronicotinamide] the same measures were 8.6, 152%, 104% and 3.98 nM.
Turning to `CCCS(=O)(=O)NC(=O)c1ccc(N2C[C@@H]3C[C@H]2C[C@H]3OCc2c(-c3c(Cl)cccc3Cl)noc2C2(F)CC2)nc1` [Compound I-208, 6-[(1S,4S,5R)-5-[[3-(2,6-dichlorophenyl)-5-(1 I-fluorocyclopropyl)-1,2-oxazol-4-yl]methoxy]-2-azabicyclo[2.2.1]heptan-2-yl]-N-(propane-1-sulfonyl)pyridine-3-carboxamide], the EC50 in assay [1] (setting [3]) was 10 nM; in assay [2] (setting [5]), 5.01 nM. For the same compound, the results for the Emax in assay [1] (setting [4]) and in assay [2] (setting [4]) were 166% and 104%, respectively.
`O=C(NS(=O)(=O)C1CC1)c1ccc(N2C[C@@H]3C[C@H]2C[C@H]3OCc2c(-c3c(Cl)cccc3Cl)noc2C2(F)CC2)nc1` [Compound I-209, N-(cyclopropanesulfonyl)-6-[(1S,4S,5R)-5-{[3-(2,6-dichlorophenyl)-5-(1-fluorocyclopropyl)-1,2-oxazol-4-yl]methoxy}-2-azabicyclo[2.2.1]heptan-2-yl]pyridine-3-carboxamide] returned a negative-log EC50 (pEC50) in assay [1] (setting [3]) of 7.8. The Emax in assay [1] (setting [4]) worked out at 160%; in assay [2] (setting [4]), 104%. Besides, in assay [2] (setting [5]), the EC50 is 15.8 nM.
Compound `O=C(NS(=O)(=O)CCO)c1ccc(N2C[C@@H]3C[C@H]2C[C@H]3OCc2c(-c3c(Cl)cccc3Cl)noc2C2CC2)cc1` [Compound I-210, 4-[(1S,4S,5R)-5-{[5-cyclopropyl-3-(2,6-dichlorophenyl)-1,2-oxazol-4-yl]methoxy}-2-azabicyclo[2.2.1]heptan-2-yl]-N-(2-hydroxyethanesulfonyl)benzamide] showed a pEC50 in assay [1] (setting [3]) of 8.6. Besides, the Emax in assay [1] (setting [4]) was 148%. In addition, the EC50 in assay [2] (setting [5]) was under 31.6 nM.
`CC(=O)OCCS(=O)(=O)NC(=O)c1ccc(N2C[C@@H]3C[C@H]2C[C@H]3OCc2c(-c3c(Cl)cccc3Cl)noc2C2CC2)cc1` [Compound I-211, 2-[({4-[(1S,4S,5R)-5-{[5-cyclopropyl-3-(2,6-dichlorophenyl)-1,2-oxazol-4-yl]methoxy}-2-azabicyclo[2.2.1]heptan-2-yl]phenyl}formamido)sulfonyl]ethyl Acetate] gave a negative logarithm of the EC50 (pEC50) in assay [1] (setting [3]) of 8.4. Also, the Emax in assay [1] (setting [4]) amounted to 152%; in assay [2] (setting [4]), 105%. In assay [2] (setting [5]), this compound showed an EC50 of 1 nM.
For `O=C(NS(=O)(=O)CCOC(=O)C1CC1)c1ccc(N2C[C@@H]3C[C@H]2C[C@H]3OCc2c(-c3c(Cl)cccc3Cl)noc2C2CC2)cc1` [Compound I-212, 2-[({4-[(1S,4S,5R)-5-{[5-cyclopropyl-3-(2,6-dichlorophenyl)-1,2-oxazol-4-yl]methoxy}-2-azabicyclo[2.2.1]heptan-2-yl]phenyl}formamido)sulfonyl]ethyl Cyclopropanecarboxylate] the same measures were 9.2, 136%, 107% and 2.51 nM.
In turn, `CC(C)C(=O)OCCS(=O)(=O)NC(=O)c1ccc(N2C[C@@H]3C[C@H]2C[C@H]3OCc2c(-c3c(Cl)cccc3Cl)noc2C2CC2)cc1` [Compound I-213, 2-[({4-[(1S,4S,5R)-5-{[5-cyclopropyl-3-(2,6-dichlorophenyl)-1,2-oxazol-4-yl]methoxy}-2-azabicyclo[2.2.1]heptan-2-yl]phenyl}formamido)sulfonyl]ethyl 2-methylpropanoate] showed a negative-log EC50 (pEC50) in assay [1] (setting [3]) of 9.4. Moreover, the Emax in assay [1] (setting [4]) came out at 131%. This compound had an EC50 in assay [2] (setting [5]) of under 31.6 nM.
In assay [1] (setting [3]), `CC(=O)OCCCS(=O)(=O)NC(=O)c1ccc(N2C[C@@H]3C[C@H]2C[C@H]3OCc2c(-c3c(Cl)cccc3Cl)noc2C2CC2)cc1` [Compound I-214, 3-[({4-[(1S,4S,5R)-5-{[5-cyclopropyl-3-(2,6-dichlorophenyl)-1,2-oxazol-4-yl]methoxy}-2-azabicyclo[2.2.1]heptan-2-yl]phenyl}formamido)sulfonyl]propyl Acetate] showed a negative-log EC50 (pEC50) of 8.6. Further, the values for the Emax in assay [1] (setting [4]) and in assay [2] (setting [4]) were 138% and 105%, respectively. The EC50 in assay [2] (setting [5]) is 2.51 nM.
For `O=C(NS(=O)(=O)CCCO)c1ccc(N2C[C@@H]3C[C@H]2C[C@H]3OCc2c(-c3c(Cl)cccc3Cl)noc2C2CC2)cc1` [Compound I-215, 4-[(1S,4S,5R)-5-{[5-cyclopropyl-3-(2,6-dichlorophenyl)-1,2-oxazol-4-yl]methoxy}-2-azabicyclo[2.2.1]heptan-2-yl]-N-(3-hydroxypropanesulfonyl)benzamide] the same measures were 8.6, 142%, 107% and 1.58 nM.
In assay [1] (setting [3]), `CC(=O)OC(C)CCS(=O)(=O)NC(=O)c1ccc(N2C[C@@H]3C[C@H]2C[C@H]3OCc2c(-c3c(Cl)cccc3Cl)noc2C2CC2)cc1` (stereo partly drawn) [Compound I-216, 4-[({4-[(1S,4S,5R)-5-{[5-cyclopropyl-3-(2,6-dichlorophenyl)-1,2-oxazol-4-yl]methoxy}-2-azabicyclo[2.2.1]heptan-2-yl]phenyl}formamido)sulfonyl]butan-2-yl Acetate] returned a pEC50 of 9.4. Also, the figures for the Emax in assay [1] and in assay [2] (setting [4]) were 145% and 112%, respectively. This compound had an EC50 in assay [2] (setting [5]) of 0.398 nM.
